Data from article PMC12282092, “Discovery of a non-nucleoside inhibitor that binds to a novel site in the palm domain of the respiratory syncytial virus RNA-dependent RNA polymerase” (Journal of Virology, 2025).

Experiments:
[1] = molecular target: human mitochondrial RNA polymerase (POLRMT) (Homo sapiens, UniProt O00411); experiment: POLRMT assay
[2] = system: HeLa cells; experiment: HeLa cytotoxicity assay (ATPlite); details: HeLa cells
Experimental: (§1) Compound serial dilutions (9 point, fourfold) were prepared in DMSO, and 200 nL was transferred to black, 384-well, clear-bottom microtiter plates (Corning, Amsterdam, The Netherlands) via acoustic drop ejection ([36], [50]). […] Then, 20 µL of a HeLa cell suspension (3,000 cells/well) was added with a Multidrop Combi, and cells were incubated at 37°C in a 5% CO2 atmosphere. After 72 h, GFP expression was quantified using an EnVision Multimode Plate Reader (Perkin Elmer, Zaventem, Belgium), and data were normalized to untreated and media-only (no virus) controls. Cytotoxicity was determined in parallel using the ATPlite kit (Perkin Elmer, Zaventem, Belgium). Luminescence was measured in white, 384-well microtiter plates (Corning) on a ViewLux uHTS Microplate Imager apparatus (PerkinElmer, Zaventem, Belgium), and cellular ATP content was quantified by normalizing to untreated and media-only (no cell) controls. […] Figures were prepared with GraphPad Prism.

[3] = HeLa cytotoxicity assay (ATPlite); details: human; for CC50 at 72 h: HeLa cells
Experimental: as §1

[4] = molecular target: coupled enzyme system (ATP sulfurylase, luciferase); experiment: Pyrophosphate detection counterscreen; type: biochemical; details: read-out: PPi counterscreen IC50
Experimental: To determine if compounds were interfering with the sulfurylase or luciferase in the pyrophosphate luminescence detection assay, a counterscreen was developed to monitor activity of the coupling system. Working solutions (3×) of substrate and detection reagents were prepared as before and added to 1536-well white, COC plates containing compound titrations. Then, 1 µL of a 3× solution of 4.5 µM sodium pyrophosphate (Sigma, P8010) was dispensed with the Multidrop Combi to initiate the reaction. […] Luminescence was detected using the PHERAStar FSX. […] Figures were prepared with GraphPad Prism.

[5] = molecular target: T1, RSV L+P (Human respiratory syncytial virus A, UniProt P28887); experiment: Pyrophosphate luminescence detection assay, full-length RSV L+P; type: biochemical; details: for Emax: read-out: Biochemical Emax; for IC50: read-out: Biochemical IC50
T1 construct: Biochemical activity of 1 and 22 against full-length RSV L+P; Twin-Strep-tag (N); made in house; host or cells: Sf9 insect cells (baculovirus, pFastBac Dual)
T1 sequence (P03421 whole entry): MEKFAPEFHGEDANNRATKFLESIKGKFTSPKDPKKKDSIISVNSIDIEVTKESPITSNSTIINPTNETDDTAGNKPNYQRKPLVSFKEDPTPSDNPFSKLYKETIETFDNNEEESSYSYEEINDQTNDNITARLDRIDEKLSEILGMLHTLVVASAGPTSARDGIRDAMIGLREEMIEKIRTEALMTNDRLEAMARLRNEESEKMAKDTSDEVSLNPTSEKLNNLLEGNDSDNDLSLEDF
T1 sequence (P28887 whole entry): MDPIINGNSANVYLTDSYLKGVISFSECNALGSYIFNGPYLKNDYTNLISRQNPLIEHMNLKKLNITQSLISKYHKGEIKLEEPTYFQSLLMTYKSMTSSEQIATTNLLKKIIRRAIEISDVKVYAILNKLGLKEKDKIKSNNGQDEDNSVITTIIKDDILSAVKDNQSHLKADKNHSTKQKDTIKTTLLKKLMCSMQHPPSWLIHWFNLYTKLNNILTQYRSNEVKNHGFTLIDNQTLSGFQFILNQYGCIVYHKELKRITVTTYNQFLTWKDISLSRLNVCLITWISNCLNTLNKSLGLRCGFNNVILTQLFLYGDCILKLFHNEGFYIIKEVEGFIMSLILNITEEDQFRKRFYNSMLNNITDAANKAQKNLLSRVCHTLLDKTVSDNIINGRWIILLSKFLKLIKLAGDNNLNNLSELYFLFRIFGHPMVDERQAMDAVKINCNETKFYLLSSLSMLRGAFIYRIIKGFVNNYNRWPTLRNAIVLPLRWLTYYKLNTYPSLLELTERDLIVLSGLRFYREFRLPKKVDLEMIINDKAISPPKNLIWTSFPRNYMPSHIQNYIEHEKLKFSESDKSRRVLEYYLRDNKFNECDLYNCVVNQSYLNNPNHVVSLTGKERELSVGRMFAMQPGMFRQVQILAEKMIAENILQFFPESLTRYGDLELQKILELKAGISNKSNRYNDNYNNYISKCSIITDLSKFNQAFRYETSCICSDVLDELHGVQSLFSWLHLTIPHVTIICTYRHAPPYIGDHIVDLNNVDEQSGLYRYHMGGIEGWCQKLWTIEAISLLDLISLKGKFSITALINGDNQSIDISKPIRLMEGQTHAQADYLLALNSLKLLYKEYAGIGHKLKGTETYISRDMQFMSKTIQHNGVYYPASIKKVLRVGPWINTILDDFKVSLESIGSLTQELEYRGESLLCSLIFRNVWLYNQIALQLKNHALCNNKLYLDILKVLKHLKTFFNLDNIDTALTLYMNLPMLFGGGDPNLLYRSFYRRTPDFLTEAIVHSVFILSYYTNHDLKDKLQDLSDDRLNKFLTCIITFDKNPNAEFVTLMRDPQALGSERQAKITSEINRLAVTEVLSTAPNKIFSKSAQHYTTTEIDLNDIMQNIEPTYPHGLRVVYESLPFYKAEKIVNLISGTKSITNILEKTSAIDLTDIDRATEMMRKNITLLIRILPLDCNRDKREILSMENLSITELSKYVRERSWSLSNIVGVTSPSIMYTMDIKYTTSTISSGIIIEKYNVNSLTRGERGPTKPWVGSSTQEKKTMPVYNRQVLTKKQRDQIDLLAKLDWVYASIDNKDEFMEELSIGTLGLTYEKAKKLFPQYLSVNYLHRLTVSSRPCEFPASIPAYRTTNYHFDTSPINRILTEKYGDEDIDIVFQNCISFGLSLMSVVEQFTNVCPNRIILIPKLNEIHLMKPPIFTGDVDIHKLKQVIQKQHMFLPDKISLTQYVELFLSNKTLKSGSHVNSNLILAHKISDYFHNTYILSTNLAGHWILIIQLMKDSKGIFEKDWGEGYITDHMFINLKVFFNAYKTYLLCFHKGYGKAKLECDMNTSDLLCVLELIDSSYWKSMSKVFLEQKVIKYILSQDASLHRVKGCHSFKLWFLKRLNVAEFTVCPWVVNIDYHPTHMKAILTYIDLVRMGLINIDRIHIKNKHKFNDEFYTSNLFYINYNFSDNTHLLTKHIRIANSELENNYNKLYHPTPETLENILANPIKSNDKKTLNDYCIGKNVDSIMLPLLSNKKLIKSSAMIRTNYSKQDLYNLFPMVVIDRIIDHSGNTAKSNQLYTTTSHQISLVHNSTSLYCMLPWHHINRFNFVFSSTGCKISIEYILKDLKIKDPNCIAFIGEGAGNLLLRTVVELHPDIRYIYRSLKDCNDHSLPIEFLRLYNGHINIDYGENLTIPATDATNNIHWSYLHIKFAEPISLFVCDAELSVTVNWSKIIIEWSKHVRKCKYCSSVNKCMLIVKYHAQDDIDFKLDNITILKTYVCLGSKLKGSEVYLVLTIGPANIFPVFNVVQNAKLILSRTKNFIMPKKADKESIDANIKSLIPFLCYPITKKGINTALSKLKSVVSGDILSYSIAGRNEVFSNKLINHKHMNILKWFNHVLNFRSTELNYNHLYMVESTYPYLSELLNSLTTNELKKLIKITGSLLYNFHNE
Experimental: Working solutions (3×) of RSV L+P (60 nM), substrate (30 µM each of GTP, CTP, UTP, 300 µM ATPαS [Jena Bioscience], 15 µM RNA template TrC-25), detection reagents (6 nM Luciferase, 900 µM luciferin, 3 U/µL ATP Sulfurylase [BioVision], 15 µM adenosine phosphosulfate [APS], 3 mM coenzyme A), were prepared in complete assay buffer. Compounds were dissolved in dimethyl sulfoxide (DMSO) and dispensed to white, 1536-well cyclic olefin copolymer (COC) plates (Corning, 9145BC) using an Echo Acoustic Liquid Handler (Beckman Coulter, San Jose, CA). Substrate (1 µL) and detection reagents (1 µL) were dispensed using a Multidrop Combi Dispenser (ThermoFisher, Waltham, MA), followed by enzyme (1 µL) to initiate the reaction. Final screening concentrations were 20 nM RSV L+P, 10 µM GTP/CTP/UTP, 100 µM ATPαS, 5 µM TrC-25, 2 nM Luciferase (Promega), 300 µM luciferin (Promega), 1 U/µL ATP sulfurylase, 5 µM APS, and 1 mM CoA. […] Luminescence was detected using the PHERAStar FSX (BMG Labtech, Ortenberg, Germany).

[6] = Metabolic stability in liver microsomes; details: in vitro intrinsic clearance in human liver microsomes, n = 1
[7] = system: rgRSV224 virus (RSV A2) in HeLa cells; experiment: HeLa cell rgRSV224 eGFP reporter viral proliferation assay; type: cell-based; details: human respiratory syncytial virus, RSV eGFP phenotypic assay in HeLa cells; for EC50: HeLa, 72 h, MOI 1, 72 h, n ≥ 2, read-out: Cellular EC50; for Emax: read-out: Cellular Emax
Experimental: as §1

[8] = molecular target: Full-length RSV P (1-241) protein (human RSV); experiment: cryo-EM structure; full-length RSV L+P complex with compound 22; 0.8 mg/mL on grids; global resolution 2.72 Å
[9] = pyrophosphate luminescence detection assay
[10] = pyrophosphate luminescence detection assay, full-length RSV L+P, n ≥ 2

human mitochondrial RNA polymerase (POLRMT), sequence (O00411 103-1230): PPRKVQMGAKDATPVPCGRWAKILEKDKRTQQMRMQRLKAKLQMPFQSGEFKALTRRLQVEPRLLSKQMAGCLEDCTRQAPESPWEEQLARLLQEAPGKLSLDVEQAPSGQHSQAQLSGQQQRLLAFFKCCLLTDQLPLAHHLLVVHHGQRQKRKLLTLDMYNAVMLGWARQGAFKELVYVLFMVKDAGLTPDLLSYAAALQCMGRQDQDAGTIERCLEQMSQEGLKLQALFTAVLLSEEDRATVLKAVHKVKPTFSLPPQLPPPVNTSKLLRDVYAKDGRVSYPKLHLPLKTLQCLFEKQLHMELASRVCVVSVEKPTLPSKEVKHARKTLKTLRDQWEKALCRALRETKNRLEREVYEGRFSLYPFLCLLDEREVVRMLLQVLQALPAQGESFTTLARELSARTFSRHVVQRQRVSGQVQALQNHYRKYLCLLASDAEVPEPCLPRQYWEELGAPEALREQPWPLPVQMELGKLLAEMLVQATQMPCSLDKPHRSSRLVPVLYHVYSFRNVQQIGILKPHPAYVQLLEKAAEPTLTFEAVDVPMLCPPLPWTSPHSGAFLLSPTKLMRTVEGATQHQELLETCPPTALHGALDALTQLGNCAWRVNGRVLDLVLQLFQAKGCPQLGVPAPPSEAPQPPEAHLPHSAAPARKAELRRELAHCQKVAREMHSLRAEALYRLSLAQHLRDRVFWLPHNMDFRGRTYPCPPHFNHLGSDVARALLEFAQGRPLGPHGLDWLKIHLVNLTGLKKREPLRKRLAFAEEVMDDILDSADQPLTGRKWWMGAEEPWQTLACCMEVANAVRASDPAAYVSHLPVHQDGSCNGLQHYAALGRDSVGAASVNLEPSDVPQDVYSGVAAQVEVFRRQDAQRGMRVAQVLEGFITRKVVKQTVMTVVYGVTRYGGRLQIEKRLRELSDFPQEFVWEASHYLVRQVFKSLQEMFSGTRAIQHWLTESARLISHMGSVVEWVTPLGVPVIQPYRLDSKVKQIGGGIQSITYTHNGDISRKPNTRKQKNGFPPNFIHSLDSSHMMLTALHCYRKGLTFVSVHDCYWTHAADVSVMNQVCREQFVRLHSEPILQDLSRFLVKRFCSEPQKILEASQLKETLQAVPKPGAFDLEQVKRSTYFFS

| Compound | IC50 [1] | POLRMT IC50 ([1]; 8 nM POLRMT) | Cytotoxicity Emax [2] | CC50 at 72 h [3] | IC50 [4] | Emax [5, 9] | HLM CLint [6] | EC50 [7] | Emax [7] | IC50 [5, 10] | stoichiometry N [8] | CC50 [3] | loss in potency on replacing the bromo substituent with a proton ([5]; compared to 1) | Biochemical IC50 [5, 10] |
| --- | --- | --- | --- | --- | --- | --- | --- | --- | --- | --- | --- | --- | --- | --- |
| N#Cc1ncc(N2CCC3(CC2)C(=O)Nc2ccc(Br)cc23)cc1Cl [Compound 1, 5-(5-bromo-2-oxospiro[indoline-3,4'-piperidin]-1'-yl)-3-chloropicolinonitrile] | > 100 µM | no activity | 63.1% | > 3.8 µM | > 100 µM | 110% | <7.7 µL/min/mg microsomal protein | 6.68 µM | 94.6% |  |  |  |  |  |
| Cc1ccc2c(c1)C1(CCN(c3cnc(C#N)c(Cl)c3)CC1)C(=O)N2 [Compound 17, 3-chloro-5-(5-methyl-2-oxospiro[indoline-3,4'-piperidin]-1'-yl)picolinonitrile] |  |  | 8.6% | > 50 µM |  | 111% | 123 µL/min/mg microsomal protein | 10.9 µM | 55.1% | 1.75 µM |  |  |  |  |
| CN1C(=O)C2(CCN(c3cnc(C#N)c(Cl)c3)CC2)c2cc(F)ccc21 [Compound 23, 3-chloro-5-(5-fluoro-1-methyl-2-oxospiro[indoline-3,4'-piperidin]-1'-yl)picolinonitrile] |  |  | 55.7% | > 3.74 µM |  | 103% | 19 µL/min/mg microsomal protein | 3.67 µM | 93.3% |  |  |  |  |  |
| Full-length RSV P (1-241) protein (natural protein) |  |  |  |  |  |  |  |  |  |  | 4 |  |  |  |
| N#Cc1ncc(N2CCC3(CC2)C(=O)Nc2ccc(Cl)cc23)cc1Cl [Compound 16, 3-chloro-5-(5-chloro-2-oxospiro[indoline-3,4'-piperidin]-1'-yl)picolinonitrile] |  |  | 45.3% | > 13 µM |  | 108% | <7.7 µL/min/mg microsomal protein | 8.07 µM | 94.2% | 1.03 µM |  |  |  |  |
| COc1cc(N2CCC3(CC2)C(=O)N(C)c2ccc(F)cc23)cnc1C#N [Compound 31, 5-(5-fluoro-1-methyl-2-oxospiro[indoline-3,4'-piperidin]-1'-yl)-3-methoxypicolinonitrile] |  |  | 37.6% | > 22.7 µM |  | 115% | 20.5 µL/min/mg microsomal protein | 8.78 µM | 98.6% | 2.98 µM |  |  |  |  |
| CN1C(=O)C2(CCN(c3ccc(C#N)c(Cl)n3)CC2)c2cc(F)ccc21 [Compound 29, 2-chloro-6-(5-fluoro-1-methyl-2-oxospiro[indoline-3,4'-piperidin]-1'-yl)nicotinonitrile] |  |  | 66.9% | > 8.43 µM |  | 95.5% | 31.9 µL/min/mg microsomal protein | 7.89 µM | 94.3% | 1.56 µM |  |  |  |  |
| N#Cc1ncc(N2CCC3(CC2)C(=O)N(c2cccnc2)c2ccc(F)cc23)cc1Cl [Compound 21, 3-chloro-5-(5-fluoro-2-oxo-1-(pyridin-3-yl)spiro[indoline-3,4'-piperidin]-1'-yl)picolinonitrile] |  |  | 44.8% | > 2.71 µM |  | 107% |  | 3.38 µM | 95.8% | 0.8 µM |  |  |  |  |
| Cc1cc(N2CCC3(CC2)C(=O)N(C)c2ccc(F)cc23)cc(F)c1C#N [Compound 32, 2-fluoro-4-(5-fluoro-1-methyl-2-oxospiro[indoline-3,4'-piperidin]-1'-yl)-6-methylbenzonitrile] |  |  | 50.9% | > 5.78 µM |  | 91.2% | 64.8 µL/min/mg microsomal protein | 13.8 µM | 92.6% | 1.9 µM |  |  |  |  |
| CN1C(=O)C2(CCN(c3ccc(C#N)c(Cl)c3)CC2)c2cc(F)ccc21 [Compound 30] |  |  | 58.0% |  |  | 100% | 39.1 µL/min/mg microsomal protein | 4.35 µM | 95.8% | 1.25 µM |  | > 6.65 µM |  |  |
| N#Cc1ncc(N2CCC3(CC2)C(=O)N(CC2CC2)c2ccc(F)cc23)cc1Cl [Compound 24, 3-chloro-5-(1-(cyclopropylmethyl)-5-fluoro-2-oxospiro[indoline-3,4'-piperidin]-1'-yl)picolinonitrile] |  |  | 51.8% | > 7.77 µM |  | 89.4% | 46.3 µL/min/mg microsomal protein | 8.61 µM | 78.3% |  |  |  |  |  |
| N#Cc1ncc(N2CCC3(CC2)C(=O)Nc2ccccc23)cc1Cl [Compound 20, 3-chloro-5-(2-oxospiro[indoline-3,4'-piperidin]-1'-yl)picolinonitrile] |  |  | 42.9% | > 3.8 µM |  | 84.7% | 19.7 µL/min/mg microsomal protein | 8.34 µM | 81.4% | 6.63 µM |  |  | 10 fold |  |
| CN1C(=O)C2(CCN(c3cnc(N4CCOCC4)c(Cl)c3)CC2)c2cc(F)ccc21 [Compound 34, 1'-(5-chloro-6-morpholinopyridin-3-yl)-5-fluoro-1-methylspiro[indoline-3,4'-piperidin]-2-one] |  |  | 41.6% | > 50 µM |  | 69.5% | 126 µL/min/mg microsomal protein | 30.3 µM | 49.6% | > 30.2 µM |  |  |  | inactive |
| N#Cc1ncc(N2CCC3(CC2)C(=O)N(CCF)c2ccc(F)cc23)cc1Cl [Compound 25, 3-chloro-5-(5-fluoro-1-(2-fluoroethyl)-2-oxospiro[indoline-3,4'-piperidin]-1'-yl)picolinonitrile] |  |  | 66.5% | > 23.4 µM |  | 90.7% | 14.1 µL/min/mg microsomal protein | 8.86 µM | 80.3% | 2.86 µM |  |  |  |  |
| COc1ccc2c(c1)C1(CCN(c3cnc(C#N)c(Cl)c3)CC1)C(=O)N2 [Compound 18, 3-chloro-5-(5-methoxy-2-oxospiro[indoline-3,4'-piperidin]-1'-yl)picolinonitrile] |  |  | 82.4% | 24.4 µM |  | 100% |  | 15.9 µM | 96.8% | 3.1 µM |  |  |  |  |
| N#Cc1ncc(N2CCC3(CC2)C(=O)Nc2ccc(F)cc23)cc1Cl [Compound 19, 3-chloro-5-(5-fluoro-2-oxospiro[indoline-3,4'-piperidin]-1'-yl)picolinonitrile] |  |  | 52.2% | > 50 µM |  | 106% | 19 µL/min/mg microsomal protein | 6.54 µM | 99.9% | 2.7 µM |  |  |  |  |
